The record followed here is patent US20110189251A1, “COMPOUNDS AND COMPOSITIONS FOR THE CONTROL OF PESTS” (priority 2007, published 2011).

Test [1] concerns adult German cockroaches, Blattella germanica. The test is described as follows: Insecticidal action, time-to-death of adult German cockroaches after 10 μL on the back. Conditions: regardless of male or female. It is filed as in vivo. Here is the method:
Material and Methods: Ten μL of either BioUD 10, pure 2-Undecanone, or Raid were separately applied to the backs (thorax and wings) of adult German cockroaches, Blattella germanica. Insects were separately placed into FLUON®-treated diet cups (Vol.=30 mL, lower diam.=3 cm, height=4 cm) to prevent escape of treated specimens.

Test [2] has as its system Eastern subterranean termite, Reticulitermes flavipes. Briefly: Killing activity in termites, compound pipetted onto back. In kind it is in vivo. The settings on record: adults, 1 μL.

For `CCCCCCCCCC(C)=O` [2-Undecanone, 2-undecanone], the “speed of kill relative to the formulated product (BioUD10)” value in test [1] is roughly 2 ×. The “Time-to-death (sec), mean” value in test [2] (castes w and s together) is 171.5 s. Also, the “Time-to-death” value in test [2] (caste s, single insects) was 146 s.
